{
  "source": "patent US11845752B2",
  "about": "“Substituted imidazo[1,5-a]pyrazines for the treatment of hepatitis B” (ALIGOS THERAPEUTICS, INC., priority 2020, dated 2023)",
  "tested_on": "HBV",
  "assay": "HBV-DNA antiviral assay using HepG2.117 cells (intracellular HBV DNA by qPCR)",
  "format": "cell-based, HBV genotype D",
  "conditions": "HBV DNA inhibition, 3 days incubation, read-out: EC50",
  "procedure": "The following assay procedure describes the HBV antiviral assay, using HepG2.117 cells, which carry a stably integrated genotype D HBV genome under the control of a Tet-off promoter, and intracellular HBV DNA quantification as endpoint. Cell viability is assessed in parallel by measuring the intracellular ATP content using ATPlite (Perkin Elmer).\nOn day 0, HepG2.117 cells (which are maintained in routine cell culture with doxycycline present in the medium at a final concentration of 1 μg/mL) were seeded in 96-well plates (white with clear bottom) at a density of 2.0×10^4 cells/well (0.1 mL/well) in medium without doxycycline to induce pgRNA transcription and subsequent formation of HBV particles. The cells were incubated at 37° C. and 5% CO2.\nOn day 1, medium was removed from each well, the test articles were diluted in culture medium without doxcycyline and 100 μL was added to cell culture wells (9 concentrations, 4-fold dilution). For each plate, 6 untreated (merely DMSO) wells were included. The final concentration of DMSO in the culture medium was 2%. Each plate was prepared in duplicate (one for HBV DNA extraction, one for ATPlite measurement). The cells were incubated at 37° C. and 5% CO2 for 3 days.\nOn day 4, cell viability was assessed using ATPlite and cell lysates were prepared for HBV DNA extraction and subsequent quantification by qPCR.\nMedium was removed from each well and 100 μL of 0.33% NP-40 in H2O was added to each well. Plates were sealed, incubated at 4° C. for 5 mins, vortexed extensively and centrifuged briefly. Next, 35 μL of lysate was added to 65 μL QuickExtract DNA Extraction Solution (Epicentre) in a PCR plate for each well. PCR plate was incubated at 65° C. for 6 mins, 98° C. for 2 mins and finally cooled to 4° C. HBV DNA was then quantified by qPCR with HBV-specific primers and probes as specified in Table 1 using the Bio-Rad SSOAdvanced Universal Probes Supermix on a CFX96 machine (Bio-Rad). The PCR cycle program consisted of 95° C. for 3 mins, followed by 40 cycles at 95° C. for 10 sec and 60° C. for 30 sec.\nA DNA standard was prepared by dilution of an IDT gBlock corresponding to the amplicon with concentrations ranging from 10^2 to 10^8 copies/input (i.e. per 4 μL) and used to generate a standard curve by plotting Cq values vs. HBV DNA standard concentration. The quantity of HBV DNA in each sample was determined by interpolating from the standard curve.\nCell viability was calculated as follows: % Cell viability=(luminescence value of test sample)/(average luminescence value of 2% DMSO control)×100%. HBV DNA inhibition was calculated as follows: 100−(HBV DNA copy number of test sample)/(average HBV DNA copy number of 2% DMSO control)×100%. No normalization to entecavir was required due to the excellent dynamic window of this assay. The CC50, EC50 and EC90 values were determined by dose-response curves fitted using non-linear regression.",
  "key": {"[1]": {"conditions": "Hepatitis B virus, HepG2.117, 72 h"}},
  "note": "Where two headings read alike, the source gives them in different places.",
  "data": [
    {"compound": "C[C@@H](O)Cn1ncc2cc(-n3c(C(=O)NCc4ccccc4-c4ccn(CC(F)(F)F)n4)c4n(c3=O)C[C@H](C)N(C(=O)c3ccc(Br)c(C(F)(F)F)c3)C4)ccc21", "note": "(mixture of isomers) [Compound 111b, (6SR)-7-[4-bromo-3-(trifluoromethyl)benzoyl]-2-[1-[(2R)-2-hydroxypropyl]indazol-5-yl]-6-methyl-3-oxo-N-[[2-[1-(2,2,2-trifluoroethyl)pyrazol-3-yl]phenyl]methyl]-6,8-dihydro-5H-imidazo[1,5-a]pyrazine-1-carboxamide]", "values": [
      {"measurement": "EC50", "setting": "[1]", "result": "50 to 500", "unit": "nM"}
    ]},
    {"compound": "CNc1ccnc(-c2ccccc2CNC(=O)c2c3n(c(=O)n2-c2ccc(OC4CC4)cc2)C[C@H](C)N(C(=O)c2ccc(Br)c(Cl)c2)C3)n1", "note": "(racemic) [Compound 26b]", "values": [
      {"measurement": "EC50", "setting": "[1]", "result": "< 50", "unit": "nM"}
    ]},
    {"compound": "CNc1ccnc(-c2ccccc2CNC(=O)c2c3n(c(=O)n2-c2ccc(OC4CC4)cc2)CC(C)N(C(=O)c2ccc(Br)c(C(F)(F)F)c2)C3)n1", "note": "(racemic) [Compound 28a, rac-(6R)-7-[4-bromo-3-(trifluoromethyl)benzoyl]-2-[4-(cyclopropoxy)phenyl]-6-methyl-N-[[2-[4-(methylamino)pyrimidin-2-yl]phenyl]methyl]-3-oxo-6,8-dihydro-5H-imidazo[1,5-a]pyrazine-1-carboxamide]", "values": [
      {"measurement": "EC50", "setting": "[1]", "result": "< 50", "unit": "nM"}
    ]},
    {"compound": "C[C@@H]1Cn2c(c(C(=O)NCc3c(F)cccc3-c3ccccn3)n(-c3ccc(OC4CC4)cc3)c2=O)CN1C(=O)c1ccc(Br)c(C(F)(F)F)c1", "note": "(racemic) [Compound 41a, rac-(6R)-7-[4-bromo-3-(trifluoromethyl)benzoyl]-2-[4-(cyclopropoxy)phenyl]-N-[[2-fluoro-6-(2-pyridyl)phenyl]methyl]-6-methyl-3-oxo-6,8-dihydro-5H-imidazo[1,5-a]pyrazine-1-carboxamide]", "values": [
      {"measurement": "EC50", "setting": "[1]", "result": "< 50", "unit": "nM"}
    ]},
    {"compound": "C[C@H]1Cn2c(c(C(=O)NCc3ccccc3-c3ccncn3)n(-c3ccc(OC[C@H](O)C(F)(F)F)cc3)c2=O)CN1C(=O)c1ccc(Br)c(C(F)(F)F)c1", "note": "(racemic) [Compound 63b, (6SR)-7-[4-bromo-3-(trifluoromethyl)benzoyl]-6-methyl-3-oxo-N-[(2-pyrimidin-4-ylphenyl)methyl]-2-[4-[(25)-3,3,3-trifluoro-2-hydroxy-propoxy]phenyl]-6,8-dihydro-5H-imidazo[1,5-a]pyrazine-1-carboxamide]", "values": [
      {"measurement": "EC50", "setting": "[1]", "result": "50 to 500", "unit": "nM"}
    ]},
    {"compound": "C[C@H](O)COc1ccc(-n2c(C(=O)NCc3ccccc3-c3ncccn3)c3n(c2=O)C[C@H](C)N(C(=O)c2ccc(Br)c(C(F)(F)F)c2)C3)cc1", "note": "(racemic) [Compound 65b, (6SR)-7-[4-bromo-3-(trifluoromethyl)benzoyl]-2-[4-[(25)-2-hydroxypropoxy]phenyl]-6-methyl-3-oxo-N-[(2-pyrimidin-2-ylphenyl)methyl]-6,8-dihydro-5H-imidazo[1,5-a]pyrazine-1-carboxamide]", "values": [
      {"measurement": "EC50", "setting": "[1]", "result": "50 to 500", "unit": "nM"}
    ]},
    {"compound": "C[C@@H]1Cn2c(c(C(=O)NCc3ccccc3-c3ccncn3)n(-c3ccc(OCC4(O)CC4)cc3)c2=O)CN1C(=O)c1ccc(Br)c(C(F)(F)F)c1", "note": "(racemic) [Compound 74a, rac-(6R)-7-[4-bromo-3-(trifluoromethyl)benzoyl]-2-[4-[(1-hydroxycyclopropyl)methoxy]phenyl]-6-methyl-3-oxo-N-[(2-pyrimidin-4-ylphenyl)methyl]-6,8-dihydro-SH-imidazo[1,5-a]pyrazine-1-carboxamide]", "values": [
      {"measurement": "EC50", "setting": "[1]", "result": "50 to 500", "unit": "nM"}
    ]},
    {"compound": "C[C@H]1Cn2c(c(C(=O)NCc3ccccc3-c3ncccn3)n(-c3ccc(N4CC5(CN(C)C5)C4)cc3)c2=O)CN1C(=O)c1ccc(Br)c(C(F)(F)F)c1", "note": "(racemic) [Compound 78b, rac-(6S)-7-[4-bromo-3-(trifluoromethyl)benzoyl]-6-methyl-2-[4-(6-methyl-2,6-diazaspiro[3.3]heptan-2-yl)phenyl]-3-oxo-N-[(2-pyrimidin-2-ylphenyl)methyl]-6,8-dihydro-SH-imidazo[1,5-a]pyrazine-1-carboxamide]", "values": [
      {"measurement": "EC50", "setting": "[1]", "result": "50 to 500", "unit": "nM"}
    ]},
    {"compound": "CN[C@H](C)COc1ccc(-n2c(C(=O)NCc3ccccc3-c3ncccn3)c3n(c2=O)C[C@H](C)N(C(=O)c2ccc(Br)c(C(F)(F)F)c2)C3)cc1", "note": "(racemic) [Compound 95b, rac-(6S)-7-[4-bromo-3-(trifluoromethyl)benzoyl]-6-methyl-2-[4-[2-(methylamino)propoxy]phenyl]-3-oxo-N-[(2-pyrimidin-2-ylphenyl)methyl]-6,8-dihydro-5H-imidazo[1,5-a]pyrazine-1-carboxamide]", "values": [
      {"measurement": "EC50", "setting": "[1]", "result": "50 to 500", "unit": "nM"}
    ]},
    {"compound": "C[C@H](COc1ccc(-n2c(C(=O)NCc3ccccc3-c3ncccn3)c3n(c2=O)C[C@H](C)N(C(=O)c2ccc(Br)c(C(F)(F)F)c2)C3)cc1)N1CCOCC1", "note": "(racemic) [Compound 96b, rac-(6S)-7-[4-bromo-3-(trifluoromethyl)benzoyl]-6-methyl-2-[4-(2-morpholinopropoxy)phenyl]-3-oxo-N-[(2-pyrimidin-2-ylphenyl)methyl]-6,8-dihydro-5H-imidazo[1,5-a]pyrazine-1-carboxamide]", "values": [
      {"measurement": "EC50", "setting": "[1]", "result": "< 50", "unit": "nM"}
    ]},
    {"compound": "Cc1nnc(-c2ccccc2CNC(=O)c2c3n(c(=O)n2-c2ccc(OC4CC4)cc2)CC(C)N(C(=O)c2ccc(Br)c(Cl)c2)C3)o1", "note": "(single isomer, unassigned) [Compound 1a, (S*)-7-(4-bromo-3-chlorobenzoyl)-2-(4-cyclopropoxyphenyl)-6-methyl-N-(2-(5-methyl-1,3,4-oxadiazol-2-yl)benzyl)-3-oxo-2,3,5,6,7,8-hexahydroimidazo[1,5-a]pyrazine-1-carboxamide]", "values": [
      {"measurement": "EC50", "setting": "[1]", "result": "50 to 500", "unit": "nM"}
    ]},
    {"compound": "Cc1nnc(-c2ccccc2CNC(=O)c2c3n(c(=O)n2-c2ccc(OC4CC4)cc2)CC(C)N(C(=O)c2ccc(Br)c(Cl)c2)C3)o1", "note": "(single isomer, unassigned) [Compound 1b, (6R*)-7-(4-bromo-3-chlorobenzoyl)-2-(4-cyclopropoxyphenyl)-6-methyl-N-(2-(5-methyl-1,3,4-oxadiazol-2-yl)benzyl)-3-oxo-2,3,5,6,7,8-hexahydroimidazo[1,5-a]pyrazine-1-carboxamide]", "values": [
      {"measurement": "EC50", "result": "< 50", "unit": "nM"}
    ]},
    {"compound": "CC1Cn2c(c(C(=O)NCc3c(F)cccc3-c3ccncn3)n(-c3ccc(OC4CC4)cc3)c2=O)CN1C(=O)c1ccc(Br)c(Cl)c1", "note": "(single isomer, unassigned) [Compound 2a, (S*)-7-(4-bromo-3-chlorobenzoyl)-2-(4-cyclopropoxyphenyl)-N-(2-fluoro-6-(pyrimidin-4-yl)benzyl)-6-methyl-3-oxo-2,3,5,6,7,8-hexahydroimidazo[1,5-a]pyrazine-1-carboxamide]", "values": [
      {"measurement": "EC50", "setting": "[1]", "result": "50 to 500", "unit": "nM"}
    ]},
    {"compound": "CC1Cn2c(c(C(=O)NCc3c(F)cccc3-c3ccncn3)n(-c3ccc(OC4CC4)cc3)c2=O)CN1C(=O)c1ccc(Br)c(Cl)c1", "note": "(single isomer, unassigned) [Compound 2b, (R*)-7-(4-bromo-3-chlorobenzoyl)-2-(4-cyclopropoxyphenyl)-N-(2-fluoro-6-(pyrimidin-4-yl)benzyl)-6-methyl-3-oxo-2,3,5,6,7,8-hexahydroimidazo[1,5-a]pyrazine-1-carboxamide]", "values": [
      {"measurement": "EC50", "result": "< 50", "unit": "nM"}
    ]},
    {"compound": "CC1Cn2c(c(C(=O)NCc3ccccc3-c3ncccn3)n(-c3ccc(OC4CC4)cc3)c2=O)CN1C(=O)c1ccc(Br)c(Cl)c1", "note": "(single isomer, unassigned) [Compound 3a, (6S*)-7-(4-bromo-3-chloro-benzoyl)-2-[4-(cyclopropoxy)phenyl]-6-methyl-3-oxo-N-[(2-pyrimidin-2-ylphenyl)methyl]-6,8-dihydro-5H-imidazo[1,5-a]pyrazine-1-carboxamide]", "values": [
      {"measurement": "EC50", "setting": "[1]", "result": "< 50", "unit": "nM"}
    ]},
    {"compound": "CC1Cn2c(c(C(=O)NCc3ccccc3-c3ncccn3)n(-c3ccc(OC4CC4)cc3)c2=O)CN1C(=O)c1ccc(Br)c(Cl)c1", "note": "(single isomer, unassigned) [Compound 3b, (6R*)-7-(4-bromo-3-chloro-benzoyl)-2-[4-(cyclopropoxy)phenyl]-6-methyl-3-oxo-N-[(2-pyrimidin-2-ylphenyl)methyl]-6,8-dihydro-5H-imidazo[1,5-a]pyrazine-1-carboxamide]", "values": [
      {"measurement": "EC50", "result": "50 to 500", "unit": "nM"}
    ]},
    {"compound": "CC1Cn2c(c(C(=O)NCc3ccccc3-c3ccncn3)n(-c3ccc(-n4cccn4)cc3)c2=O)CN1C(=O)c1ccc(Br)c(Cl)c1", "note": "(single isomer, unassigned) [Compound 4a, 7-(4-bromo-3-chloro-benzoyl)-6-methyl-3-oxo-2-(4-pyrazol-1-ylphenyl)-N-[(2-pyrimidin-4-ylphenyl)methyl]-6,8-dihydro-5H-imidazo[1,5-a]pyrazine-1-carboxamide]", "values": [
      {"measurement": "EC50", "setting": "[1]", "result": "50 to 500", "unit": "nM"}
    ]}
  ]
}
